From patent US12624031B2, “Inhibitors of ubiquitin specific peptidase 22 (USP22) and uses thereof for treating diseases and disorders” (Northwestern University, priority 2022, dated 2026)

Assays:
[1] = tested on: PD-L1 expression in A549 cells; assay: PD-L1 expression in A549 cells by flow cytometry; type: cell-based, human; conditions: Homo sapiens; A549 cells, 48 hours; unit inferred; read-out: IC50 inhibition of PD-L1 expression
Experimental: FIG. 13: The effects of USP22i-S02-S106 on suppression of PD-L1 expression on human lung adenocarcinoma cells. Human […] lung adenocarcinoma A549 cells were treated with S02-S106 or its lead compound S02 for 48 hours. The expression levels of PD-L1 were determined by flow cytometry. (A) Representative flow data from A549 cells treated with 2 μM S02-S106 or with 15 μM S02 are shown. DMSO treated cells were used as an untreated control and USP22 CRISPR knockout A549 cells were used as a positive control. (B) The dose-dependent inhibition of PD-L1 expression in A549 cells by S02-S106 with USP22i-S02 as a control. Data were normalized with PD-L1 expression levels in USP22-KO cells as 100% of USP22 inhibition as shown in A. (C) Inhibition of PD-L1 expression in WT and USP22-null A549 cells by S02-S106.
We then used PD-L1 expression level as a measurement to evaluate the inhibitory efficacy of USP22 by S02-S106.
To determine the specificity of USP22i-S02-S106, we treated the WT and USP22-null lung cancer cells.

[2] = tested on: FoxP3 expression in CD4+ natural T-regulatory cells; assay: FoxP3 expression in natural T-regulatory cells by flow cytometry; type: cell-based, murine; conditions: concentration of 1-2 ug
Experimental: FIGS. 3 and 4: Change in FoxP3 expression in murine CD4+ natural T-regulatory cells. Murine lymphocytes were isolated from the spleens and lymph nodes and cultured with varying concentrations of inhibitor (0.25 μg/mL to 2 μg/mL) or DMSO, anti-CD3, anti-CD28, TGFβ, and IL-2. After two days, lymphocytes were analyzed by flow cytometry for FoxP3 expression in natural T-regulatory (nTregs) gated on CD3+CD4+CD25+FoxP3+. (FIG. 3) Representative histograms of FITC::FoxP3 MFI in nTregs cultured with inhibitors at a concentration of 2 μg/mL. (FIG. 4) Representative plot of FITC::FoxP3 geometric MFI in nTregs across different concentrations of inhibitor.
We then analyzed whether treatment of Tregs with the compounds S106, 107 and 110 inhibits USP22 activity in Tregs as measured by FoxP3 expression levels by flow cytometry.

[3] = tested on: FoxP3 and PD-L1 expression; assay: biological screening of FoxP3 and PD-L1 expression; type: cell-based; conditions: inhibition of FoxP3 and PD-L1 expression
Experimental: Biological screening confirmed that USP22i-S02 inhibited the expression of FoxP3 and PD-L1 expression in a USP22-dependent manner. The IC50 is about 6-7 uM. […] In particular, modifications at the R position at A-Ring, or R1 and R2 at E-Ring are likely to improve its biological activity. Therefore, we used the SYBYL drug design software and generated a chemical library of 40400 derivatives (named as USP22-S02X) by modifying the A or/and E ring with 200 functional groups at the R or R1 or R2 or two of the three positions.

[4] = tested on: Foxp3 in human Treg cells; assay: Foxp3 MFI of human Treg cells; type: cell-based; conditions: low doses
Experimental: FIG. 6: Usp22i-S02 halts Usp22-mediated Foxp3 deubiqutination. A, Graphical representation of Foxp3 MFI change in WT versus 22KO iTreg cells treated with various doses of Usp22i-S02 (n=3). B, Representative histogram of Foxp3 MFI level in iTreg cells as Usp22 inhibitor concentration increases from 0-20 μg/mL. C, Cell survival of iTreg cells treated with various doses of Usp22i-S02 (n=3). D, FOXP3 and USP22 protein level in WT and 22KO mice treated with 10 μg/mL Usp22i-S02. E-F, Graphical and representative data of Foxp3 MFI of human Treg cells treated with various doses of Usp22i-S02 (n=3). G, Graphical representation of Foxp3 MFI in WT, Usp21-null, and Usp22-null Treg cells treated with Usp22i-S02 at 10 μg/mL (n=3). H, FOXP3 and USP22 protein degradation of cycloheximide (10 μg/mL) treated iTreg cells with or without the addition of 10 μg/mL of Usp22i-S02. I-J, Endogenous DUB assay IP in iTreg cells of USP22 with FOXP3 under increasing concentrations of Usp22i-S02. K, Foxp3 mRNA level in iTreg cells as Usp22 inhibitor concentration increases from 0-20 μg/mL (n=3). L, FOXP3 and USP22 level in WT iTreg cells with or without 20 μg/mL Usp22 inhibitor treated with 20 μM MG132. M, Graphical representation of the percentage of decrease of Foxp3 MFI in either WT or Usp22-null nTreg cells placed in low glucose conditions with or without the addition of 10 μg/mL of Usp22i-S02 (n=7-8). […]

[5] = tested on: LLC1 cells; assay: LLC1 cell counts, viability and growth in vitro; type: cell-based; conditions: 24 hours various concentrations; 10 ug/ml for 7 days
Experimental: FIG. 8: Usp22i-S02 inhibits tumor growth in vitro and in vivo. A, In vitro counts of LLC1 after treatment with Usp22i-S02 under various concentrations for 24 hours (n=2). B, In vitro viability of LLC1 after treatment with Usp22i-S02 under various concentrations for 24 hours (n=2). C, In vitro relative growth of LLC1 cells treated with 10 ug/ml of Usp22i-S02 relative to DMSO treated control for 7 days via OD600 (n=4). D, Growth curve of 1 million subcutaneously injected LLC1 cells into RAG−/− mice treated for 3 days Usp22i-S02 relative to DMSO control injections at day 15 of tumor growth (n=4). C-D, Two-way ANOVA with Sidaks's multiple comparisons between rows relative to control was performed to determine statistical significance. All data are presented as mean±stdev. NS, not significant. *P<0.05, **P<0.01, ***P<0.001, ****P<0.0001.
As Usp22 is also an important oncogene, we were interested in the potential dual-therapeutic function of Usp22i-S02.

N#Cc1c2c(c(Nc3ccccc3)n3c1nc1ccccc13)CCCC2 [USP22i-S02, 11-anilino-7,8,9,10-tetrahydrobenzimidazo[1,2-b]isoquinoline-6-carbonitrile]
IC50 [1]: 13.7 µM | FoxP3 expression levels in Tregs [2]: did not reduce the levels of FoxP3 | IC50 [3]: 6 to 7 µM | Foxp3 MFI in human Treg cells [4]: significantly decreased Foxp3 MFI | viability of human Treg cells [4]: little effect to cell viability | LLC1 tumor cell counts, viability and growth in vitro [5]: decreased tumor cell counts, viability, and growth
